{"source": "patent US7572832B2", "about": "“Non-hygroscopic L-carnitine salts” (Biolink Life Sciences, Inc., priority 2007, dated 2009)", "key": {"[1]": {"set-up": "species or system human", "settings": "in vivo, iv", "description": "Physiological effects of administration by injection of a solution of L-carnitine calcium acetate. The inventors expect that a study paralleling that of Golper et al. (Example 9, vide infra) may be completed in which L-carnitine calcium acetate of the present invention is substituted for the L-carnitine of Golper et al. L-Carnitine calcium acetate of the present invention has a known molecular weight and composition and is water soluble. Therefore, intravenously administrable solutions of L-carnitine calcium acetate can be prepared that will provide a known concentration of L-carnitine. The intravenously administrable solutions of L-carnitine calcium acetate of the present invention may be provided to test subjects as sterile aqueous solutions of L-carnitine calcium acetate which will be administered by injecting over one to three minutes in the venous line during the blood return immediately after the end of every dialysis treatment. In the alternative, the inventors expect that the unique physico-chemical properties of L-carnitine calcium acetate of the present invention will permit incorporation of L-carnitine calcium acetate into dialysate as a source of L-carnitine and as a partial or total replacement for the calcium that is conventionally included in dialysate."}, "[2]": {"test": "Determination of hygroscopicity or deliquescence (exposure study)", "settings": "for change in mass, final vs initial net weight: + = increase, 1% or greater increase = hygroscopic, less than 1% change = stable and non-hygroscopic; for Net weight, final: open glass container, ambient atmosphere, end of 6-day storage period", "procedure": "The hygroscopicity or deliquescence of L-carnitine compounds was determined in the following manner. An accurately weighed portion of each compound was weighed into a separate, tared glass container that was open to the ambient atmosphere. Periodically during the storage period that followed, each sample was re-weighed and the mass recorded. At the end of the 6-day storage period, the change in mass at each interval was determined (Table 2)."}, "[3]": {"test": "Observation of hygroscopicity and storage stability of the isolated solid on exposure to the atmosphere", "assay_type": "physicochemical", "method": "The term “non-hygroscopic” means the ability endowed by certain L-carnitine salts, when they occur as powders or granules, to withstand exposure to the water vapor of an ambient atmosphere for 24 hours or longer without giving rise to adverse phenomena of aggregating, agglomerating, absorbing water, or deliquescing which results in loss of their flowability.\nAttempted preparation of L-carnitine calcium succinate. A mixture of calcium succinate ([…], 0.003 mol) and L-carnitine (0.5 g, 0.003 mol) was dissolved in water (5 mL) and stirred at room temperature for 30 minutes. Dissolution was incomplete, and the reaction temperature was raised to 80° C. Stirring was continued at the higher temperature for 3 hr. The resulting solution was cooled to room temperature and filtered, and the filtrate was concentrated at reduced pressure to a white solid.\nAttempted preparation of L-carnitine calcium salt. A mixture of calcium hydroxide (0.22 g, 0.003 mol) was suspended in acetone (100 mL) and a concentrated solution of L-carnitine (0.5 g, 0.003 mol) in the minimum volume of water needed to effect dissolution was added. The resulting reaction mixture was heated at reflux for 4 hours. Dissolution remained incomplete. The reaction mixture was filtered hot. The filtrate was concentrated at reduced pressure to a white solid."}, "[4]": {"settings": "background statement; cited from earlier work"}, "[5]": {"settings": "20 mg/kg intravenously (VitaCarn 20% solution) after every dialysis treatment, six months; cited from earlier work"}, "[6]": {"settings": "6-day storage open to ambient atmosphere"}}, "note": "Entries after “also recorded” stand apart in the source; their conditions may differ. Like-named read-outs stand apart in the source and are kept apart here."}
{"compound": "CC(=O)[O-].CC(=O)[O-].C[N+](C)(C)C[C@H](O)CC(=O)[O-].[Ca+2]", "note": "[L-carnitine calcium acetate]", "values": [{"measurement": "change in plasma and red blood cell carnitine concentrations and total/free carnitine ratio", "setting": "[1]", "value": "measurable increases"}, {"measurement": "change in mass, final vs initial net weight", "setting": "[2]; [6]", "value": "(+0.3%)"}, {"measurement": "Conclusion & Observations", "setting": "[2]; 6-day storage open to ambient atmosphere, calcium acetate", "value": "did not absorb water and was stable during storage"}, {"measurement": "Conclusion & Observations", "setting": "[2]; 6-day storage open to ambient atmosphere, listed as L-Carnitine calcium acetate, calcium acetate", "value": "absorb water and was stable during storage."}, {"measurement": "Net weight, final", "setting": "[2]", "value": 149.5, "unit": "mg"}]}
{"compound": "C[N+](C)(C)C[C@H](O)CC(=O)[O-].O=C([O-])/C=C/C(=O)[O-].[Ca+2]", "note": "[L-carnitine calcium fumarate]", "values": [{"measurement": "hygroscopicity and stability of the solid", "setting": "[3]", "value": "hygroscopic"}]}
{"compound": "CCC(=O)[O-].CCC(=O)[O-].C[N+](C)(C)C[C@H](O)CC(=O)[O-].[Ca+2]", "note": "[L-carnitine calcium propionate]", "values": [{"measurement": "change in mass, final vs initial net weight", "setting": "[2]; [6]", "value": "(+5%)"}, {"measurement": "Conclusion & Observations", "setting": "[2]; higher relative humidities (above about 20%)", "value": "absorbed water. Compound became"}, {"measurement": "Net weight, final", "setting": "[2]", "value": 170.2, "unit": "mg"}, {"measurement": "Conclusion & Observations", "setting": "[2]; relative humidity less than about 20%", "value": "mobility of the material did not change."}]}
{"compound": "C[N+](C)(C)C[C@H](O)CC(=O)[O-].[Ca]", "note": "[L-carnitine calcium salt]", "values": [{"measurement": "hygroscopicity and stability of the solid", "setting": "[3]", "value": "hygroscopic"}]}
{"compound": "C[N+](C)(C)C[C@H](O)CC(=O)[O-].O=C([O-])CCC(=O)[O-].[Ca+2]", "note": "[L-carnitine calcium succinate]", "values": [{"measurement": "hygroscopicity and stability of the solid", "setting": "[3]", "value": "hygroscopic"}]}
{"compound": "C[N+](C)(C)C[C@H](O)CC(=O)[O-]", "note": "[L-carnitine, L-(−)-Carnitine]", "values": [{"measurement": "hygroscopicity (known)", "setting": "[4]", "value": "very hygroscopic"}, {"measurement": "increase of plasma and red blood cell total carnitine concentrations", "setting": "[5]", "value": "eightfold"}, {"measurement": "Conclusion & Observations", "setting": "[2]; [6]", "value": "absorbed water. Material is hygroscopic."}, {"measurement": "change in mass, final vs initial net weight", "setting": "[2]; [6]", "value": "(+>8%)"}, {"measurement": "Net weight, final", "setting": "[2]", "value": ">226.8", "unit": "mg"}]}
{"compound": "L-carnitine calcium butyrate", "values": [{"measurement": "hygroscopicity and stability of the solid", "setting": "[3]; exposure to the atmosphere", "value": "not hygroscopic; also recorded: lack of hygroscopicity or deliquescence"}, {"measurement": "hygroscopicity and stability of the solid", "setting": "[3]; provided that the relative humidity is less than about 20%", "value": "not hygroscopic or deliquescent and is stable during storage"}]}
